The record followed here is US8815842B2 (priority 2006, dated 2014).

The conditions of data set [1]: Corriedale, sheep, in vivo, po, 100 mg/kg.
In data set [2] the test system is foot-and-mouth disease virus serotype A. In kind it is cell-based.
Data set [3] concerns foot-and-mouth disease virus serotype Asia 1. It is filed as cell-based.
The conditions of data set [4]: black-haired Japanese cattle, bovine, in vivo, po, 100 mg/kg.
The conditions of data set [5]: pig, in vivo, po, 100 mg/kg.
The test system of data set [6] is foot-and-mouth disease virus serotype C. It is filed as cell-based.
Another data set concerns Vero cells. Nature of the data set: cells. It is filed as cell-based. The settings on record: Chlorocebus sabaeus, 96 h, read-out: 50% cell growth inhibitory concentration (IC50).
The test system of data set [7] is foot-and-mouth disease virus (O/JPN/2000 strain). In words: microbe, parasite or virus in culture. The settings on record: in Sus scrofa, 72 h, read-out: plaque formation 50% inhibitory rate (IC50). It is filed as cell-based.
The subject of data set [8] is foot-and-mouth disease virus. As to conditions: pig, in vivo.

Converted amounts (≈) assume the structure as drawn. Read-outs that look alike come from different tables or passages of the source.

As for `NC(=O)c1nccnc1O` [T-1105, 3-oxo-3,4-dihydro-2-pyrazinecarboxamide], in data set [1], the “Plasma concentration 2 hrs after administration” value (“Plasma concentration 2 hrs” below) is 30.9 µg/mL and the “Plasma concentration 8 hrs after administration” value (“Plasma concentration 8 hrs” below) was 10.2 µg/mL. In addition, in data set [2], the “25% or more inhibitory concentration” value was 0.313 µg/mL. The “25% or more inhibitory concentration” value in [3] amounted to 0.625 µg/mL. For the same molecule, in data set [4], the “Plasma concentration 2 hrs” value turned out to be 7.86 µg/mL and the “Plasma concentration 8 hrs” value stood at 0.173 µg/mL. In addition, in [5], the “Plasma concentration 2 hrs” value stood at 75.0 µg/mL and the “Plasma concentration 8 hrs” value stood at 36.4 µg/mL. For the same molecule, the “25% or more inhibitory concentration” value in data set [6] stood at 1.25 µg/mL. Further, the IC50 in the data set on Vero cells is at least 250 mg/L. Moreover, in data set [7], the IC50 was found to be 1.6 mg/L (≈ 11.5 µM). For the same molecule, in [8], the “change in appearance (lameness, dysstasia, blister formation in feet)” value is given as “no change in their appearance”; the “plasma viral load, in words” value is reported as “remained at the detection limit or bellow”; the “viral load in the nasal swab, in words” value is given as “scarcely increased”. Further, in data set [8] (400 mg/kg/day), the clinical sign result was “−”, the plasma viral load is listed as below 0.14 TCID50/μL, the “toxic finding during the administration period” value was “no toxic finding” and the “viral load in the nasal swab” value is <0.07 TCID50/μL of swab solution.
